In general, Emax refers to the size of the effect at its maximum, as opposed to the concentration needed. The EC50 is the concentration needed to bring the measured effect to its halfway point.

Among the data in patent US20230265151A1, “GIP/GLP1 CO-AGONIST COMPOUNDS” (priority 2020, published 2023) are Emax and EC50 values, retold here.

Structures are written as SMILES. Where two headings read alike, the source gives them in different places.

Holding throughout (format): cell-based
One experiment deals with T1, hGIPR (Homo sapiens, UniProt P48546).
T1 construct: expressed in transfected cells
T1 sequence (P48546 22-466): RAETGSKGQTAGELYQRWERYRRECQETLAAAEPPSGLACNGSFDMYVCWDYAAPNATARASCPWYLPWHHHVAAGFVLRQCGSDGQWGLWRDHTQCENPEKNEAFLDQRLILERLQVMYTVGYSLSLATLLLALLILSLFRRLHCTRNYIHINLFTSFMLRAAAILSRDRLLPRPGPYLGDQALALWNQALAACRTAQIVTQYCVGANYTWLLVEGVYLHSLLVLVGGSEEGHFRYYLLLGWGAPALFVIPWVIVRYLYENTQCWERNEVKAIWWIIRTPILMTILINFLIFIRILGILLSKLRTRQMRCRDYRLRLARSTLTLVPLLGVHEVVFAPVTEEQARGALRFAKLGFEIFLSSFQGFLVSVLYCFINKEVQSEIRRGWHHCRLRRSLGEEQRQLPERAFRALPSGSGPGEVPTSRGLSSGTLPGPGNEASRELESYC
Nature of the experiment: Functional cAMP formation (HTRF) in HEK-293 clonal cells expressing hGIPR, 0.1% bovine casein, without or with 1.0% human serum albumin. Particulars: for EC50: geometric mean. In a few lines: (§1)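 Cells were stimulated with peptide for 30 min at 37° C, then lysed in buffer carrying cAMP-d2 and anti-cAMP Eu3+-cryptate for a competitive HTRF read after at least 60 min at room temperature. The 665/620 nm ratio was converted to nM cAMP against a standard curve.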

The target of another experiment is T2, hGCGR (Homo sapiens, UniProt P47871).
T2 construct: expressed in transfected cells
T2 sequence (P47871 26-477): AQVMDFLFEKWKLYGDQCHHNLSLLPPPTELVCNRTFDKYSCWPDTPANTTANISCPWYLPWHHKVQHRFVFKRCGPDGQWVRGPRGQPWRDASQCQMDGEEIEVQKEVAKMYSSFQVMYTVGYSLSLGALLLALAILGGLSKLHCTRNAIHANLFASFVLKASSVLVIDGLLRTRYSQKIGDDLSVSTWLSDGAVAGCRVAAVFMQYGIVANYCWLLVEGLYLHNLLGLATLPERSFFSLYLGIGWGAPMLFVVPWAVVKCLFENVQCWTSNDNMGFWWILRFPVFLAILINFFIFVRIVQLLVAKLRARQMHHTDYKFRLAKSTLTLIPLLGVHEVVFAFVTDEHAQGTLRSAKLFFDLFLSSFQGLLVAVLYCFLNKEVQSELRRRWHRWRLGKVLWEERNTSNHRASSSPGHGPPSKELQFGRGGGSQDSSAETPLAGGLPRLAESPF
The experiment in a line: Functional cAMP formation (HTRF) in HEK-293 clonal cells expressing hGCGR, 0.1% bovine casein, without or with 1.0% human serum albumin. The essentials:
as §1
(Cyclic AMP is a second messenger, typically raised through Gs and lowered through Gi signalling.)

Another experiment has as its target hGLP-1R (Homo sapiens, UniProt P43220). The experiment in a line: Functional cAMP formation (HTRF) in HEK-293 clonal cells expressing hGLP-1R, 0.1% bovine casein, without or with 1.0% human serum albumin. Details: expressed in transfected cells. The essentials: as §1
The mark [1] stands for this setting: HEK293, 0.1% bovine casein and 1.0% human serum albumin, 37° C., percent of maximal response to GIP(1-42)NH2, read-out: hGIPR Emax, % ± SEM.
Where [2] appears, read: HEK293, percent of maximal response to GIP(1-42)NH2, 37° C., 0.1% bovine casein, arithmetic mean, read-out: hGIPR Emax, % ± SEM.
The mark [3] stands for this setting: cAMP, incubated at 37° C., 0.1% bovine casein (no human serum albumin), read-out: hGIPR EC50, nM (SEM, n).
The mark [4] stands for this setting: 0.1% bovine casein and 1.0% human serum albumin, 37° C., geometric mean, read-out: hGCGR EC50, nM (SEM, n).
The mark [5] stands for this setting: cAMP, incubated at 37° C., 0.1% bovine casein (no human serum albumin), geometric mean, read-out: hGCGR EC50, nM (SEM, n).
Where [6] appears, read: 0.1% bovine casein and 1.0% human serum albumin, 37° C., geometric mean, read-out: hGLP-1R EC50, nM (SEM, n).
Setting [7] is: cAMP, incubated at 37° C., 0.1% bovine casein (no human serum albumin), geometric mean, read-out: hGLP-1R EC50, nM (SEM, n).

Chain of hGLP-1R (P43220 24-463): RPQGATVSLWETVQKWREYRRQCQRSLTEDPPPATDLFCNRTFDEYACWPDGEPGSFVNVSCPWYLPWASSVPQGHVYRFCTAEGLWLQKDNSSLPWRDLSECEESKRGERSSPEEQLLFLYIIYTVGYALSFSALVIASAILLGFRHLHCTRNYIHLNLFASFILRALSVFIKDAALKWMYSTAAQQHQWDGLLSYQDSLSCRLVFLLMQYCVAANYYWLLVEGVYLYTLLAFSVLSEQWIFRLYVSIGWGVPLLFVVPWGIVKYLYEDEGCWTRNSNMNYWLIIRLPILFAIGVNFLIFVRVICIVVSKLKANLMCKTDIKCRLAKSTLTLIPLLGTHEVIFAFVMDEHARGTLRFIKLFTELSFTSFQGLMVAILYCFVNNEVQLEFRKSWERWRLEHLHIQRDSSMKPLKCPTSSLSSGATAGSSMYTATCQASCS

Take `CC[C@H](C)[C@H](NC(=O)[C@H](CC(C)C)NC(=O)[C@](C)(Cc1ccc(O)cc1)NC(=O)[C@@H](CCC(=O)O)NC(=O)[C@@H](NC(=O)[C@H](Cc1ccccc1)NC(=O)[C@H](CCC(=O)O)NC(=O)C(C)(C)NC(=O)[C@H](CCC(N)=O)NC(=O)[C@H](C)NC(=O)[C@H](CCCCNC(=O)COCCOCCNC(=O)COCCOCCNC(=O)CC[C@H](NC(=O)CCCCCCCCCCCCC(=O)O)C(=O)O)NC(=O)[C@H](CCCN)NC(=O)[C@H](CC(=O)O)NC(=O)[C@H](CC(C)C)NC(=O)[C@](C)(CC(C)C)NC(=O)[C@@H](NC(=O)[C@H](CO)NC(=O)[C@H](Cc1ccc(-c2ccccc2)cc1)NC(=O)[C@H](CC(=O)O)NC(=O)[C@H](CO)NC(=O)[C@@H](NC(=O)[C@](C)(Cc1ccccc1F)NC(=O)[C@@H](NC(=O)CNC(=O)[C@H](CCC(=O)O)NC(=O)C(C)(C)NC(=O)[C@@H](N)Cc1ccc(O)cc1)[C@@H](C)O)[C@@H](C)O)[C@@H](C)CC)[C@@H](C)CC)C(=O)N[C@@H](CCC(=O)O)C(=O)NCC(=O)NCC(=O)N[C@@H](CCCCNC(=O)COCCOCCNC(=O)COCCOCCNC(=O)CC[C@H](NC(=O)CCCCCCCCCCCCC(=O)O)C(=O)O)C(=O)N[C@@H](CO)C(=O)N[C@@H](CO)C(=O)NCC(=O)N[C@@H](C)C(=O)N1CCC[C@H]1C(=O)N1CCC[C@H]1C(=O)N1CCC[C@H]1C(=O)N[C@@H](CO)C(N)=O` [Example 55]: the maximal response (Emax) is 85.7 ± 0.885% on hGIPR (setting [1]) and 97.1 ± 2.16% on hGIPR (setting [2]). Moreover, the EC50 at hGIPR (setting [3]) was 0.0207 nM; on hGCGR (setting [4]), above 9950 nM; at hGCGR (setting [5]), above 9950 nM; at hGLP-1R (setting [6]), 70.5 nM; on hGLP-1R (setting [7]), 0.154 nM.

As for `CC[C@H](C)[C@H](NC(=O)[C@H](CC(C)C)NC(=O)[C@](C)(Cc1ccc(O)cc1)NC(=O)[C@@H](CCC(=O)O)NC(=O)[C@@H](NC(=O)[C@H](Cc1ccccc1)NC(=O)[C@H](CCCCNC(=O)COCCOCCNC(=O)CC[C@H](NC(=O)CCCCCCCCCCCCC(=O)O)C(=O)O)NC(=O)C(C)(C)NC(=O)[C@H](CCC(N)=O)NC(=O)[C@H](C)NC(=O)[C@H](CCCCNC(=O)COCCOCCNC(=O)CC[C@H](NC(=O)CCCCCCCCCCCCC(=O)O)C(=O)O)NC(=O)[C@H](CCCN)NC(=O)[C@H](CC(=O)O)NC(=O)[C@H](CC(C)C)NC(=O)[C@](C)(CC(C)C)NC(=O)[C@@H](NC(=O)C(C)(C)NC(=O)[C@@H](NC(=O)[C@H](CC(=O)O)NC(=O)[C@H](CO)NC(=O)[C@@H](NC(=O)[C@](C)(Cc1ccccc1F)NC(=O)[C@@H](NC(=O)CNC(=O)[C@H](CCC(=O)O)NC(=O)C(C)(C)NC(=O)[C@@H](N)Cc1ccc(O)cc1)[C@@H](C)O)[C@@H](C)O)C(C)C)[C@@H](C)CC)[C@@H](C)CC)C(=O)N[C@@H](CCC(=O)O)C(=O)NCC(=O)NCC(=O)N1CCC[C@H]1C(=O)N[C@@H](CO)C(=O)N[C@@H](CO)C(=O)NCC(=O)N[C@@H](C)C(=O)N1CCC[C@H]1C(=O)N1CCC[C@H]1C(=O)N1CCC[C@H]1C(=O)N[C@@H](CO)C(N)=O` [Example 398], the Emax on hGIPR (HEK293, cAMP, 37° C., 0.1% bovine casein and 1.0% human serum albumin, percent of maximal response to GIP(1-42)NH2, read-out: hGIPR Emax, % ± SEM) came out at 91.9%; on hGIPR (HEK293, cAMP, 37° C., 0.1% bovine casein, percent of maximal response to GIP(1-42)NH2, arithmetic mean, read-out: hGIPR Emax, % ± SEM) it was 97.4%. The EC50 was 0.0166 nM on hGIPR (cAMP, 37° C., 0.1% bovine casein (no human serum albumin), read-out: hGIPR EC50, nM (SEM, n)); above 9950 nM on hGCGR (cAMP, 37° C., 0.1% bovine casein (no human serum albumin), geometric mean, read-out: hGCGR EC50, nM (SEM, n)); above 9950 nM at hGCGR (cAMP, 37° C., 0.1% bovine casein and 1.0% human serum albumin, geometric mean (SEM, n), read-out: hGCGR EC50, nM (SEM, n)); 0.215 nM on hGLP-1R (cAMP, 37° C., 0.1% bovine casein (no human serum albumin), geometric mean, read-out: hGLP-1R EC50, nM (SEM, n)); 41.3 nM at hGLP-1R (cAMP, 37° C., 0.1% bovine casein and 1.0% human serum albumin, geometric mean (SEM, n), read-out: hGLP-1R EC50, nM (SEM, n)).

On to `CC[C@H](C)[C@H](NC(=O)[C@H](CCCN)NC(=O)[C@H](CC(=O)O)NC(=O)[C@H](CC(C)C)NC(=O)[C@](C)(CC(C)C)NC(=O)[C@@H](NC(=O)C(C)(C)NC(=O)[C@H](Cc1ccc(O)cc1)NC(=O)[C@H](CC(=O)O)NC(=O)[C@H](CO)NC(=O)[C@@H](NC(=O)[C@](C)(Cc1ccccc1F)NC(=O)[C@@H](NC(=O)CNC(=O)[C@H](CCC(=O)O)NC(=O)C(C)(C)NC(=O)[C@@H](N)Cc1ccc(O)cc1)[C@@H](C)O)[C@@H](C)O)[C@@H](C)CC)C(=O)N[C@@H](C)C(=O)N[C@@H](CCC(N)=O)C(=O)NC(C)(C)C(=O)N[C@@H](CCC(=O)O)C(=O)N[C@@H](Cc1ccccc1)C(=O)N[C@H](C(=O)N[C@@H](CCCCNC(=O)COCCOCCNC(=O)COCCOCCNC(=O)CC[C@H](NC(=O)CCCCCCCCCCCCC(=O)O)C(=O)O)C(=O)N[C@@](C)(Cc1ccc(O)cc1)C(=O)N[C@@H](CC(C)C)C(=O)N[C@H](C(=O)N[C@@H](CCCCNC(=O)COCCOCCNC(=O)COCCOCCNC(=O)CC[C@H](NC(=O)CCCCCCCCCCCCC(=O)O)C(=O)O)C(=O)NCC(=O)NCC(=O)N1CCC[C@H]1C(=O)N[C@@H](CO)C(=O)N[C@@H](CO)C(=O)NCC(=O)N[C@@H](C)C(=O)N1CCC[C@H]1C(=O)N1CCC[C@H]1C(=O)N1CCC[C@H]1C(=O)N[C@@H](CO)C(N)=O)[C@@H](C)CC)[C@@H](C)CC` [Example 233], for which the EC50 is 6.08 nM on hGIPR (0.1% bovine casein and 1.0% human serum albumin, 37° C., read-out: hGIPR EC50, nM (SEM, n)); 0.0269 nM at hGIPR (setting [3]); above 9950 nM at hGCGR (setting [4]); above 9950 nM on hGCGR (setting [5]); 56.7 nM at hGLP-1R (setting [6]); 0.604 nM on hGLP-1R (setting [7]). The maximal effect (Emax) on hGIPR (setting [1]) came to 91.4%; at hGIPR (setting [2]) it was 105%; on hGLP-1R (HEK293, 0.1% bovine casein and 1.0% human serum albumin, 37° C., percent of maximal response to GLP-1(7-36)NH2, read-out: hGLP-1R Emax, % ± SEM) it was 116%; at hGLP-1R (HEK293, percent of maximal response to GLP-1(7-36)NH2, 37° C., 0.1% bovine casein, arithmetic mean, read-out: hGLP-1R Emax, % ± SEM), 111%.

`CC[C@H](C)[C@H](NC(=O)[C@H](CC(C)C)NC(=O)[C@](C)(Cc1ccc(O)cc1)NC(=O)[C@@H](CCC(=O)O)NC(=O)[C@@H](NC(=O)[C@H](Cc1ccccc1)NC(=O)[C@H](CCC(=O)O)NC(=O)C(C)(C)NC(=O)[C@H](CCC(N)=O)NC(=O)[C@H](C)NC(=O)[C@H](CCCCNC(=O)COCCOCCNC(=O)COCCOCCNC(=O)CC[C@H](NC(=O)CCCCCCCCCCOc1ccc(C(=O)O)cc1)C(=O)O)NC(=O)[C@H](CCCN)NC(=O)[C@H](CC(=O)O)NC(=O)[C@H](CC(C)C)NC(=O)[C@](C)(CC(C)C)NC(=O)[C@@H](NC(=O)[C@H](CO)NC(=O)[C@H](Cc1ccncc1)NC(=O)[C@H](CC(=O)O)NC(=O)[C@H](CO)NC(=O)[C@@H](NC(=O)[C@](C)(Cc1ccccc1F)NC(=O)[C@@H](NC(=O)CNC(=O)[C@H](CCC(=O)O)NC(=O)C(C)(C)NC(=O)[C@@H](N)Cc1ccc(O)cc1)[C@@H](C)O)[C@@H](C)O)[C@@H](C)CC)[C@@H](C)CC)C(=O)N[C@@H](CCC(=O)O)C(=O)NCC(=O)NCC(=O)N1CCC[C@H]1C(=O)N[C@@H](CO)C(=O)N[C@@H](CO)C(=O)NCC(=O)N[C@@H](C)C(=O)N1CCC[C@H]1C(=O)N1CCC[C@H]1C(=O)N1CCC[C@H]1C(=O)N[C@@H](CO)C(=O)N[C@@H](CCCCNC(=O)COCCOCCNC(=O)COCCOCCNC(=O)CC[C@H](NC(=O)CCCCCCCCCCOc1ccc(C(=O)O)cc1)C(=O)O)C(N)=O` [Example 285]: the Emax at hGIPR (HEK293, read-out: hGIPR Emax, % ± SEM, 0.1% bovine casein and 1.0% human serum albumin, 37° C., percent of maximal response to GIP(1-42)NH2) came to 84.7%; on hGLP-1R (HEK293, read-out: hGLP-1R Emax, % ± SEM, 0.1% bovine casein and 1.0% human serum albumin, 37° C., percent of maximal response to GLP-1(7-36)NH2), 105%. Further, the EC50 on hGIPR (hGIPR EC50, nM (SEM, n), 0.1% bovine casein and 1.0% human serum albumin, 37° C.) was 1.28 nM; at hGIPR (hGIPR EC50, nM (SEM, n), cAMP, 37° C., 0.1% bovine casein (no human serum albumin)), 0.0115 nM; on hGCGR (hGCGR EC50, nM (SEM, n), 0.1% bovine casein and 1.0% human serum albumin, 37° C., geometric mean), above 9950 nM; on hGCGR (hGCGR EC50, nM (SEM, n), cAMP, 37° C., 0.1% bovine casein (no human serum albumin), geometric mean) it was above 9950 nM; on hGLP-1R (hGLP-1R EC50, nM (SEM, n), cAMP, 37° C., 0.1% bovine casein (no human serum albumin), geometric mean), 1.21 nM.
